Data as given in ChEMBL document CHEMBL3745712, “Identification of N-(4-((1R,3S,5S)-3-Amino-5-methylcyclohexyl)pyridin-3-yl)-6-(2,6-difluorophenyl)-5-fluoropicolinamide (PIM447), a Potent and Selective Proviral Insertion Site of Moloney Murine Leukemia (PIM) 1, 2, and 3 Kinase Inhibitor in Clinical Trials for Hematological Malignancies” (J Med Chem, 2015).

Tests used:
cells [1] = assay type: functional, cell-based; conditions: Homo sapiens, KMS-11, 72 h
Description: Antiproliferative activity against luciferase expressing human KMS11 cells after 72 hrs by Cell-TiterGlo assay

in vitro [2] = conditions: rat, microsomes
in vitro [3] = conditions: human, microsomes
in vitro [4] = conditions: human, microsomes; remark: listed apart in the source
in vitro [5] = conditions: rat, microsomes; remark: listed apart in the source
[6] = molecular target: Serine/threonine-protein kinase pim-1 (Homo sapiens, UniProt P11309)
cells [7] = assay type: cell-based, KMS11; conditions: Homo sapiens, KMS-11, 1 h
[8] = molecular target: Serine/threonine-protein kinase pim-3 (Homo sapiens, UniProt Q86V86)

Serine/threonine-protein kinase pim-1, sequence (P11309 whole entry): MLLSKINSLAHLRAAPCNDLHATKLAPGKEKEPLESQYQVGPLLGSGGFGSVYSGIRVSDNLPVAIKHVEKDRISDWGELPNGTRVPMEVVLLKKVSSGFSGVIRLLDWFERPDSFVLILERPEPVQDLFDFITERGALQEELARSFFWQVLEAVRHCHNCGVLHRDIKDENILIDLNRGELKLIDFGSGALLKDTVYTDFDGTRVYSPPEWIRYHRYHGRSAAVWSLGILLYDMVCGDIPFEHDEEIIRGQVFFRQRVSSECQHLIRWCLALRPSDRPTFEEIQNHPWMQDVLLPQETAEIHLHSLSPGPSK

SMILES | EC50 (cells [1]) [nM] | half-life at 0.5 h, 1 µM (in vitro [2]) [min] | half-life at 0.5 h, 1 µM (in vitro [3]) [min] | CLhep predicted at 0.5 h, 1 µM (in vitro [4]) [mL/min/kg] | CLhep predicted at 0.5 h, 1 µM (in vitro [5]) [mL/min/kg] | Ki [6] [nM] | EC50 (cells [7]) [nM] | Ki [8] [nM]
N[C@@H]1CCCN(c2c(/C=C3\SC(=O)NC3=O)cccc2-c2ccccc2)C1 | 670 |  |  |  |  |  |  | 
C[C@@H]1C[C@H](N)C[C@H](c2ccncc2NC(=O)c2ccc(F)c(-c3ccccc3F)n2)C1 |  | 92 | > 180 | < 6 |  |  |  | 
Nc1ccc(C2CCCCC2)nc1C(=O)Nc1cnccc1[C@@H]1CCC[C@H](N)C1 |  | 8 | 85 | 10 |  |  |  | 
N[C@H]1CCCN(c2ccncc2NC(=O)c2csc(-c3c(F)cccc3F)n2)C1 | 1200 | 6 | 70 | 11 | 49 |  |  | 
C[C@@H]1C[C@H](N)CN(c2ccncc2NC(=O)c2csc(-c3c(F)cccc3F)n2)C1 | 390 | 9 | 49 | 13 | 47 |  |  | 
N[C@H]1CCC[C@@H](c2ccncc2NC(=O)c2csc(-c3c(F)cccc3F)n2)C1 | 5000 | 85 | 121 | 8 | 21 |  |  | 
C[C@@H]1C[C@H](N)C[C@H](c2ccncc2NC(=O)c2csc(-c3c(F)cccc3F)n2)C1 | 910 | 65 | > 180 | < 6 | 24 | < 1 | 320 | 4
C[C@@H]1C[C@H](N)CN(c2ccncc2NC(=O)c2ccc(F)c(-c3ccccc3F)n2)C1 |  | 11 | 13 | 18 | 45 |  |  | < 3
N[C@H]1CCCN(c2ccncc2NC(=O)c2ccc(F)c(-c3c(F)cccc3F)n2)C1 | 1400 | 13 | 25 | 16 | 44 | < 1 |  | < 3
Nc1ccc(C2CCCCC2)nc1C(=O)Nc1cnccc1N1CCC[C@H](N)C1 |  | 3 | 14 | 18 | 52 | < 1 |  | 3
C[C@@H]1C[C@H](N)CN(c2ccncc2NC(=O)c2ccc(F)c(-c3c(F)cccc3F)n2)C1 |  | 20 | 40 | 14 | 40 |  |  | 
CN1CCC(CNc2ccc3ncc(-c4cccc(OC(F)(F)F)c4)n3n2)CC1 [SGI-1776] | 5000 |  |  |  |  |  |  | 
